Literature values as cited in US6348583B1, “Poly(ether-thioether), poly(ether-sulfoxide) and poly(ether-sulfone) nucleic acids” (Bio-Rad Laboratories, Inc., priority 1999, dated 2002).
Read-outs that look alike come from different tables or passages of the source.

Key:
[1] = aqueous buffers
dA10 = conditions: duplex with dA10

Substance: d(ApG)8: methylphosphonate oligonucleotide analog, SEQ ID NO:22 (DNA GAGAGAGAGAGAGAGA; methylphosphonate backbone, further chemistry not given here)
- solubility [1]: less than 0.1 mM

Substance: d(CpT)8: methylphosphonate oligonucleotide analog, SEQ ID NO:21 (DNA CTCTCTCTCTCTCTCT; methylphosphonate backbone, further chemistry not given here)
- solubility ([1]; result in words): soluble up to millimolar concentrations

Substance: dT10: native DNA dT10, duplex with dA10 (SEQ ID NO:18) (TTTTTTTTTT)
- Tm value (dA10): about 24 °C
